Results from US6616940B2, “Process for decreasing adiposity using Vitamin A as a dietary supplement” (The Procter & Gamble Company, priority 1998, dated 2003).

Experiments:
[1] = test system: β3-adrenergic receptor mRNA; test: β3-adrenergic receptor mRNA levels in PWAT and BAT; assay type: in vivo, rats; conditions: for β3AR mRNA levels, BAT / β3AR mRNA levels, PWAT: CGP-12177 0.75 mg/kg i.p., 4 h, mean ± SE
Protocol: (§1) Rats were fed a diet containing either, 8,643 IU retinol/kg diet (normal diet) or 430,431 IU retinol/kg diet (vitamin A supplemented diet) for a period of 8 weeks. Food and water were provided ad libitum. Body weights and food intake were recorded weekly. Basal whole body oxygen consumption was measured before starting the diet and then after week 3, 6 and 8 on the diet. At the end of 8 weeks, half the rats from each group were challenged with a single dose of the β3 adrenergic specific agonist, CGP-12177 (prepared in pyrogen-free saline, available from Ciba-Geigy, Summit, N.J.) (0.75 mg/kg, i.p.) or saline. The stimulated whole body oxygen consumption was measured and the animals sacrificed 4 hours after injection.
(§2) Total cellular RNA was extracted using a modification of the method described in Chomczynski and Sacchi, “Single step method of RNA isolation by acid guanidinium thiocyanate-phenolchloroform extraction”, Analytical Biochemistry 162:156-159 (1987). The integrity of the isolated RNA was verified using 1% agarose gels stained with ethidium bromide. The RNA was quantified by spectrophotometric absorption at 260 nm using multiple dilutions of each sample.
(§3) For dot-blot analysis, multiple concentrations of RNA were immobilized on nylon membranes using a dot-blot apparatus (Biorad, Richmond, Calif.). The membranes were baked at 80° C. for 2 hrs. The baked membranes were prehybridized using 25 mM potassium phosphate, 750 mM NaCl, 75 mM Na citrate, 5× Denhardt's solution, 50 μg/ml denatured salmon sperm DNA, and 50% formamide. After incubation for 14-16 hrs. at 42° C, the membranes were hybridized with ^32P labeled probes in the prehybridization buffer plus 10% dextran sulfate. After hybridization for 14-16 hr at 42° C., the membranes were washed and exposed to a phosphor imaging screen for 48 hrs. The latent image was scanned using a Phosphor Imager (Molecular Dynamic, Sunnyvale, Calif.) and analyzed by Image Quant Software (Molecular Dynamics). Intensities per μg total cellular RNA were calculated by comparison to internal laboratory standards of WAT or BAT total RNA present on each nylon membrane.

[2] = test system: leptin mRNA; test: Leptin mRNA levels in PWAT (dot-blot); assay type: in vivo, rats; conditions: CGP-12177 0.75 mg/kg i.p.
Protocol: (§4) Rats were fed a diet containing either, 8,643 IU retinol/kg diet (normal diet) or 430,431 IU retinol/kg diet (vitamin A supplemented diet) for a period of 8 weeks. Food and water were provided ad libitum. Body weights and food intake were recorded weekly. Basal whole body oxygen consumption was measured before starting the diet and then after week 3, 6 and 8 on the diet. At the end of 8 weeks, half the rats from each group were challenged with a single dose of the β3 adrenergic specific agonist, CGP-12177 (prepared in pyrogen-free saline, available from Ciba-Geigy, Summit, […].) or saline. The stimulated whole body oxygen consumption was measured and the animals sacrificed 4 hours after injection. Total cellular RNA was extracted using a modification of the method described in Chomczynski and Sacchi, “Single step method of RNA isolation by acid guanidinium thiocyanate-phenolchloroform extraction”, Analytical Biochemistry 162:156-159 (1987). […] The RNA was quantified by spectrophotometric absorption at 260 nm using multiple dilutions of each sample. […] The latent image was scanned using a Phosphor Imager (Molecular Dynamic, Sunnyvale, Calif.) and analyzed by Image Quant Software (Molecular Dynamics). Intensities per μg total cellular RNA were calculated by comparison to internal laboratory standards of WAT or BAT total RNA present on each nylon membrane.

[3] = test system: UCP1 mRNA; test: UCP1 mRNA levels in BAT (dot-blot); assay type: in vivo; conditions: rats on both vitamin A supplemented and normal diets, 0.75 mg/kg i.p., 4 h (FIG. 4)
Protocol: as §4

[4] = test system: β-actin mRNA; test: β-actin mRNA levels in BAT; assay type: in vivo, rats; conditions: CGP-12177 0.75 mg/kg i.p., 4 h, mean ± SE
Protocol: as §4

[5] = Whole body oxygen consumption (basal and CGP-12177-stimulated); assay type: in vivo; conditions: rats on normal and vitamin A supplemented diets, 0.75 mg/kg i.p., vs saline injected rats
Protocol: as §1
O2 consumption was assessed on up to four rats simultaneously with an Oxyscan analyzer (OXS-4; Amniotic Electronics, Columbus, Ohio). All experiments were performed on conscious unanesthetized rats during the light phase of the light-dark cycle. Flow rates were 2 L/min with a 30 second sampling time at 5 minute intervals. The temperature was maintained at 26° C. Results were expressed on a mass-dependent basis (ml/min/kg^0.67). The cumulative increase in the CGP12177-stimulated oxygen consumption was calculated as the average increase over baseline from 30 min to 110 min, post injection.

[6] = test system: UCP2 mRNA; test: UCP2 mRNA levels in PWAT and BAT; assay type: in vivo, rats; conditions: CGP-12177 0.75 mg/kg i.p., 4 h, mean ± SE
Protocol: as §1, §2, §3

In the case of `CC(C)(C)NCC(O)COc1cccc2[nH]c(=O)[nH]c12` (stereo not shown) [CGP-12177], the “Down regulation of β3-adrenergic receptor mRNA levels in BAT” value ([1]; CGP-12177 for 4 h, rats on vitamin A supplemented and normal diets, vs saline treated) is reported as 50%, the “β3AR mRNA levels, BAT” value ([1]; Normal Diet) is reported as 50.9 ± 3.3 arbitrary units and the “β3AR mRNA levels, PWAT” value ([1]; Normal Diet) is reported as 105 ± 6.0 arbitrary units. The “β3AR mRNA levels, BAT” value ([1]; Vitamin A supplemented diet) was 59.8 ± 7.9 arbitrary units, the “β3AR mRNA levels, PWAT” value ([1]; Vitamin A supplemented diet) was 112 ± 11 arbitrary units and the “Suppression of leptin mRNA levels in PWAT” value ([2]; rats on normal diet, 4 hr (FIG. 2)) was 27%. For the same molecule, the “Effect on leptin mRNA levels in PWAT” value ([2]; rats on vitamin A supplemented diet, 4 hr, vs saline on same diet) was “no further effect”, the “UCP1 mRNA levels in BAT upon administration of CGP-12177” value [3] was “significant but similar increase” and the “β-actin mRNA levels, BAT” value ([4]; Normal Diet) was 98.6 ± 7.4 arbitrary units. The “β-actin mRNA levels, BAT” value ([4]; Vitamin A supplemented diet) was 93.8 ± 8.0 arbitrary units, the “Oxygen consumption upon administration of CGP-12177” value [5] was “rapid and sustained increase” and the “UCP2 mRNA levels, BAT” value ([6]; Normal Diet) was 93.4 ± 12.2 arbitrary units. The “UCP2 mRNA levels, PWAT” value ([6]; Normal Diet, 0.75 mg/kg) was 109 ± 10 arbitrary units, the “UCP2 mRNA levels, PWAT” value ([6]; Normal Diet, listed as CGP12177, 0.75 mg/kg) was “no effect” and the “UCP2 mRNA levels, BAT” value ([6]; Vitamin A supplemented diet) was 94 ± 8.9 arbitrary units. For the same molecule, the “UCP2 mRNA levels, PWAT” value ([6]; Vitamin A supplemented diet) was 110 ± 10 arbitrary units.
